# The source made the active and inactive calls. The calls are words filed in the database; no cut-off is given here.
# What was measured:
# [1] = target: T1, Adenosine receptor A1 (Homo sapiens) (UniProt P30542); test: Displacement of [3H]DPCPX from human A1AR expressed in CHO cell membrane at 1 uM incubated for 60 mins by competitive binding assay relative to control; assay type: cell membranes
# T1 sequence (whole entry): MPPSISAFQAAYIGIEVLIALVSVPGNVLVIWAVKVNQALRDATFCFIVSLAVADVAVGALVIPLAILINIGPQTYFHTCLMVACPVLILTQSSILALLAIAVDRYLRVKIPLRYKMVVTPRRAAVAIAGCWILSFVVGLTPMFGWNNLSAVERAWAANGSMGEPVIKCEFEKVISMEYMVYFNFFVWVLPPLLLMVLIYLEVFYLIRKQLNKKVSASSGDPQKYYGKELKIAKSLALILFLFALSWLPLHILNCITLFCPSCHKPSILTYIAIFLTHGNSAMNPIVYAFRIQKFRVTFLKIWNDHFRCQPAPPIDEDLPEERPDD
# [2] = target: T2, Adenosine receptor A3 (Homo sapiens) (UniProt P0DMS8); test: Displacement of [3H]NECA from human A3AR expressed in human HeLa cell membrane at 1 uM incubated for 180 mins by competitive binding assay relative to control; assay type: cell membranes
# T2 sequence (whole entry): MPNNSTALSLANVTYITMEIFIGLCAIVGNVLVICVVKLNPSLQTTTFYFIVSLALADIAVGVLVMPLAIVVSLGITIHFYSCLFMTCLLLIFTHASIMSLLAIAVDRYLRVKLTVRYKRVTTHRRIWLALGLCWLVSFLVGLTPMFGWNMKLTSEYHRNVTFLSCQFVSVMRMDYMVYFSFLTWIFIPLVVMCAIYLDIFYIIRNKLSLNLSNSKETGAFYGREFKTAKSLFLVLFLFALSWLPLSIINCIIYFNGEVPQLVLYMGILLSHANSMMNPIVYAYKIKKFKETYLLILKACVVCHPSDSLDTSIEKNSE
# [3] = target: Adenosine receptor A2a (Homo sapiens) (UniProt P29274); test: Displacement of [3H]DPCPX from human A2AAR expressed in human HeLa cell membrane at 1 uM incubated for 30 mins by competitive binding assay relative to control; assay type: cell membranes
# [4] = Solubility of compound in 1:99 DMSO/PBS incubated for 4 hrs; assay type: physicochemical
# [5] = target: T3, Adenosine receptor A2b (Homo sapiens) (UniProt P29275); test: Antagonist activity against N-terminal pRK5/SNAP-tagged human A2BAR transfected in HEK293T cells assessed as reduction in NECA-induced change in cellular impedence by measuring AUC measured for 45 mins; assay type: functional, cell-based; settings: filed as antagonist
# T3 sequence (whole entry): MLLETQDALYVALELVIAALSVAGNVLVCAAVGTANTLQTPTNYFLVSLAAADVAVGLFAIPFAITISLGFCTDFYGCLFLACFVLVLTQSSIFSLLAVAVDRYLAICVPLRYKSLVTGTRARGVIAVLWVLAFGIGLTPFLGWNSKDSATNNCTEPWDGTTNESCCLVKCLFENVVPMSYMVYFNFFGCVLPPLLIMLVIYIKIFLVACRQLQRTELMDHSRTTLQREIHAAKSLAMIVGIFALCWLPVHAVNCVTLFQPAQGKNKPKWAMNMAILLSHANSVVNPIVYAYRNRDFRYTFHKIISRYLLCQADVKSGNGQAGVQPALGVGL
# Cytochrome P450 3A4 [6] = target: T4, Cytochrome P450 3A4 (Homo sapiens, UniProt P08684)
# Description: Inhibition of CYP3A4 (unknown origin) using DBF as substrate preincubated for 5 mins followed by substrate addition by fluorescence based assay
# Cytochrome P450 3A4 [7] = target: T4, Cytochrome P450 3A4; test: Inhibition of CYP3A4 (unknown origin) using 7-BFC as substrate preincubated for 5 mins followed by substrate addition by fluorescence based assay; assay type: ADME
# [8] = Immunostimulatory effect on anti-CD3/CD28 antibodies/IL-2-activated human PBMC cells assessed as reversal of ADO-mediated inhibition of cell proliferation at 15 uM incubated for 3 days by CFSE dye based flow cytometry (reference value: 3.55 %); assay type: functional; set-up: scale not given: the % may be the effect or the level left; settings: time 3 day
# Adenosine receptor A2a (Homo sapiens), sequence (P29274 whole entry): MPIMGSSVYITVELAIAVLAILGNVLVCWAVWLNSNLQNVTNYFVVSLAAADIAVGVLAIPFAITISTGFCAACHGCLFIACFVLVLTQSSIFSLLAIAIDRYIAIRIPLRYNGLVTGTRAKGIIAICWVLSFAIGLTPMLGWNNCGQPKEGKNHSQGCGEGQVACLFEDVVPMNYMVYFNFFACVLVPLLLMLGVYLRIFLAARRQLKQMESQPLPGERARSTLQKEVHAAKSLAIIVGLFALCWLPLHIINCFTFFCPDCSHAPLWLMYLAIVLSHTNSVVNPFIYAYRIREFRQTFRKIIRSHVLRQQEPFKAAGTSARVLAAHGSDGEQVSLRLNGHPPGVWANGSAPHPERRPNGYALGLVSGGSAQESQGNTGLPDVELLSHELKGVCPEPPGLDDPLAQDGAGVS
# T4 sequence (P08684 whole entry): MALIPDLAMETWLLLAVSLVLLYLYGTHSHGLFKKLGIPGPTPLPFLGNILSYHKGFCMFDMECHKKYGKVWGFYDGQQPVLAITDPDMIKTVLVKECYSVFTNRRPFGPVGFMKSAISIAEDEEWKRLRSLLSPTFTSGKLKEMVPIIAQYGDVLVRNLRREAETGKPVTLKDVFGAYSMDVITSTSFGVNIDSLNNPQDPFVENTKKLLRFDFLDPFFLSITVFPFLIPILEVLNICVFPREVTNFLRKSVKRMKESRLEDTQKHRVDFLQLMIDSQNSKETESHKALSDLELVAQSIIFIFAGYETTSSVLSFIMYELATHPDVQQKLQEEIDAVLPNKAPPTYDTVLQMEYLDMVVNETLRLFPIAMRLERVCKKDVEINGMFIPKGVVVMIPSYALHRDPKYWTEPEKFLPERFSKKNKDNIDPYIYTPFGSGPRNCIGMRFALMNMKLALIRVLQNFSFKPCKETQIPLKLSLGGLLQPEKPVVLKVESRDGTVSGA
Structure (SMILES),Activity [3] [%],solubility kinetic at 4 h [4] [µM],Activity [5],IC50 (Cytochrome P450 3A4 [7]) [µM],other results
CCOC(=O)C1=C(C)Nc2nc3ccccc3n2C1c1cocn1 (centres undefined),–,–,–,–,Activity [1]: 5%; Activity [2]: 7%
CCOC(=O)C1=C(C)Nc2nc3cc(Br)ccc3n2[C@H]1c1ccoc1,–,–,–,–,Activity [2]: 10%
CCCn1c(=O)[nH]c2[nH]c(-c3ccc(S(=O)(=O)C4CCC(c5ccc(Cl)cc5)CC4)cc3)nc2c1=O (centres undefined),–,0.2,–,–,–
CC1=C(C(=O)OC(C)C)C(c2cocn2)n2c(nc3ccccc32)N1 (centres undefined),19,39.7,–,–,Activity [1]: 7%; Activity [2]: 16%
CC1=C(C(=O)OC(C)C)C(c2ccco2)n2c(nc3cc(F)ccc32)N1 (racemic),–,–,Active,> 10,IC50 (Cytochrome P450 3A4 [6]): > 10 µM
CC1=C(C(=O)OC(C)C)[C@@H](c2ccco2)n2c(nc3cc(Br)ccc32)N1,14,–,–,–,–
CC1=C(C(=O)OC(C)C)C(c2ccco2)n2c(nc3cc(Cl)ccc32)N1 (racemic),–,–,Active,> 10,Activity [8]: 6.64%
CC1=C(C(=O)OC(C)C)C(c2ccoc2)n2c(nc3ccccc32)N1 (centres undefined),23,26.1,–,–,–
CC1=C(C(=O)OC(C)C)C(c2ccco2)n2c(nc3cc(F)c(F)cc32)N1 (racemic),–,–,–,> 10,IC50 (Cytochrome P450 3A4 [6]): > 10 µM
CC1=C(C(=O)OC(C)C)C(c2ccco2)n2c(nc3ccccc32)N1 (centres undefined),–,25.2,–,–,–

# Second part, led by results:
Activity [3] [%],solubility kinetic at 4 h [4] [µM],Activity [5],IC50 (Cytochrome P450 3A4 [7]) [µM],Structure (SMILES),other results
12,–,–,–,CCOC(=O)C1=C(C)Nc2nc3cc(Br)ccc3n2[C@@H]1c1ccoc1,–
–,–,Active,–,CCOC(=O)C1=C(C)Nc2nc3cc(Br)ccc3n2C1c1ccoc1 (racemic),–
–,–,Active,> 10,CC1=C(C(=O)OC(C)C)C(c2ccco2)n2c(nc3cc(Br)ccc32)N1 (racemic),–

# — ChEMBL document CHEMBL5321195, “Exploring the Effect of Halogenation in a Series of Potent and Selective A2B Adenosine Receptor Antagonists” (J Med Chem, 2023)
